# Experimental data as given in US20210346317A1, “TREATMENT OF HEMATOPOIETIC STEM CELL TRANSPLANT PATIENTS” (PRIOTHERA LIMITED, priority 2016, published 2021).
# How the values were obtained:
# [1] = system: Recipient C57BL/6 or IDUAKI (B6.129S-Iduatm1.1Kmke/J) mice; assay: Mouse model of inherited metabolic disease (IMD): HSC engraftment after mild non-myeloablative conditioning; assay type: in vivo
# From the text: Recipient C57BL/6 or IDUAKI (B6.129S-Iduatm1.1Kmke/J) mice were conditioned with a mild non-myeloablative regimen. A limited number of 1×10E3 HSC were transplanted from congenic mice. Groups were either untreated or treated with KRP for 15 days.
# patients undergoing HSCT = assay: Neutrophil engraftment in patients after allogeneic hematopoietic stem cell transplantation; assay type: in vivo; settings: for neutrophil count above baseline: e.g. 2 mg KRP203/per day
# Protocol: Day 1=drug treatment commences (e.g. 2 mg KRP203/per day)
# Day 2 and Day 10: Conditioning was performed as described above (e.g. Mini Seattle or RIC)
# Day 11: transplantation of stem cells from an allogeneic donor is being carried out
# To monitor for engraftment of donor hematopoietic stem cells in recipients, the neutrophil count is measured usually daily. The commonly accepted definition of “day of engraftment” (take) is the first of three consecutive days with a neutrophil count higher than 500 cells per microliter. A neutrophil count of higher than 500 cells per microliter is reached in the below experiment, when the probability of engraftment is 1.0 (100%) versus baseline or higher. The donor origin of these cells is normally confirmed by genomic analyses on day 30.
# [2] = day 56, 1×10E3 HSC from congenic mice, treated for 15 days, vs untreated group
smiles,measurement,setting,value
"NC(CO)(CO)CCc1ccc(Sc2cccc(OCc3ccccc3)c2)cc1Cl [KRP203, 2-amino-2-[4-(3-benzyloxyphenylthio)-2-chlorophenyl]ethyl-propane-1,3-diol]",donor cells in engrafted mice,[1]; [2],more donor cells than the untreated group
same,mice engrafted,[1]; [2],More mice from the KRP203 treated group engrafted
same,engraftment (conclusion),"[1]; non-myeloablative conditions, limited HSC, treatment in the peri-transplant period",augments engraftment
same,Probability of neutrophil engraftment,patients undergoing HSCT; Day 0,0.00
same,Probability of neutrophil engraftment,patients undergoing HSCT; Day 10,0.00
same,Probability of neutrophil engraftment,patients undergoing HSCT; Day 11,0.33
same,neutrophil count above baseline,"patients undergoing HSCT; Day 11, control group 11%",33 % above baseline
same,Probability of neutrophil engraftment,patients undergoing HSCT; Day 12,0.44
same,Probability of neutrophil engraftment,patients undergoing HSCT; Day 13,0.67
same,Probability of neutrophil engraftment,patients undergoing HSCT; Day 14,0.89
same,Probability of neutrophil engraftment,patients undergoing HSCT; Day 15,1.00
same,neutrophil count above baseline,"patients undergoing HSCT; Day 15, control group 48%",100 % above baseline
same,Probability of neutrophil engraftment,patients undergoing HSCT; Day 16,1.00
same,Probability of neutrophil engraftment,patients undergoing HSCT; Day 17,1.00
same,Probability of neutrophil engraftment,patients undergoing HSCT; Day 18,1.00
same,Probability of neutrophil engraftment,patients undergoing HSCT; Day 19,1.00
same,Probability of neutrophil engraftment,patients undergoing HSCT; Day 20,1.00
same,Probability of neutrophil engraftment,patients undergoing HSCT; Day 21,1.00
same,Probability of neutrophil engraftment,patients undergoing HSCT; Day 22,1.00
same,Probability of neutrophil engraftment,patients undergoing HSCT; Day 23,1.00
same,speed of engraftment vs control group,"patients undergoing HSCT; FIG. 1 and Table 1, patients treated with KRP203",engrafted much faster than the control group
